Literature values as cited in patent publication US12285031B2, “Beverage with collagen and additional additives” (WELLDRINKS LTD, priority 2015, dated 2025).
Square brackets hold non-standard residues; d marks the D form. Peptide text beside a SMILES is read from it. Hyp = O=C(O)[C@@H]1C[C@@H](O)CN1

What was measured:
[1] = adult humans
[2] = system: dermal fibroblasts; details: in vitro

| SMILES | fraction of ingested Mn absorbed [1] | cell proliferation of dermal fibroblasts [2] | production of hyaluronic acid by dermal fibroblasts [2] |
| --- | --- | --- | --- |
| [Mn+2] [Mn, Manganese] | 3-5% |  |  |
| O=C(O)CNC(=O)[C@@H]1C[C@@H](O)CN1 [Hyp-Gly, hydroxyprolyl-glycine] (H-[Hyp]-Gly-OH) |  | enhance cell proliferation |  |
| O=C(O)[C@@H]1C[C@@H](O)CN1C(=O)[C@@H]1CCCN1 [Pro-Hyp, prolyl-hydroxyproline] (H-Pro-[Hyp]-OH) |  | enhance cell proliferation | enhances |
